23 compounds from US20240246932A1 (Merck Sharp & Dohme LLC, priority 2021, published 2024) can be followed below.

This test concerns the target human NaV 1.8 channels stably expressed in HEK 293 cells (Homo sapiens (Human), UniProt Q9Y5Y9). Put plainly: Nav1.8 Qube automated patch-clamp assay. The test is classed as cell-based. Conditions: human NaV1.8 in HEK 293 cells, whole-cell voltage clamp, room temperature; read-out: IC50 values (nM) for Examples in the Nav1.8 Qube Assay. Here is the method: Compounds were tested on human NaV 1.8 and NaV1.5 channels stably expressed in human embryo kidney (HEK) 293 cells. Sodium current measurements on Qube® were conducted as follows: automated 384-well patch-clamp assays on the Qube® platform (Sophion Biosciences) were used to measure the inhibition of sodium flow through human NaV1.8 and NaV1.5 channels. Whole-cell voltage-clamp recordings were performed in QChips® (Sophion Biosciences) at room temperature. NaV1.8 current measurements on Qube® were obtained as follows: NaV1.8 currents were elicited with a 10 second 1 Hertz (Hz) pulse train from a holding potential of −90 millivolts (mV), delivered to the cells once per minute in the control condition (DMSO only) and after compound addition. The 1 hertz pulse train stimulation consisted of ten test pulses to 10 millivolt (mV) for 20 milliseconds (ms), each of which was followed by a 980 millisecond repolarization to −67 millivolts. At the end of the 10 second pulse train stimulation, a 5 second hyperpolarization step to −100 millivolt (mV) was used to recover NaV1.8 from fast inactivation. The peak currents elicited by the 1st and 10th test pulses were used to determine IC50 values for resting inhibition and inactivated state inhibition. NaV1.5 current measurements on Qube® were obtained as follows: NaV1.5 currents were elicited with a 20 second 3 Hertz pulse train in the control condition (DMSO only) and after compound addition. The pulse train consisted of sixty 20 millisecond test pulses to 0 millivolt from a holding potential of −80 millivolt (mV). The average peak currents elicited by the last 3 test pulses were used to determine IC50 values for NaV1.5 inhibition.
The following buffers were used for the Qube® recordings: External buffer for NaV1.8 Qube® recording: 150 NaCl, 2 CaCl2, 5 KCl, 1 MgCl2, 10 HEPES, 12 Dextrose; External buffer for Qube® NaV1.5 recording: 120 N-Methyl-D-Glucamine, 40 NaCl, 1 KCl, 2.7 CaCl2), 5 HEPES, 0.5 MgCl2; and Internal buffer for Qube® recording: 120 CsF, 30 CsCl, 10 EGTA, 5 HEPES, 5 NaF, 2 MgCl2.
For all Qube® experiments offline analysis was used to determine percent inhibition as a function of drug concentration. IC50 values were determined by fitting to the Hill equation.

SMILES strings stand for the structures.

human NaV 1.8 channels stably expressed in HEK 293 cells, sequence (Q9Y5Y9 whole entry): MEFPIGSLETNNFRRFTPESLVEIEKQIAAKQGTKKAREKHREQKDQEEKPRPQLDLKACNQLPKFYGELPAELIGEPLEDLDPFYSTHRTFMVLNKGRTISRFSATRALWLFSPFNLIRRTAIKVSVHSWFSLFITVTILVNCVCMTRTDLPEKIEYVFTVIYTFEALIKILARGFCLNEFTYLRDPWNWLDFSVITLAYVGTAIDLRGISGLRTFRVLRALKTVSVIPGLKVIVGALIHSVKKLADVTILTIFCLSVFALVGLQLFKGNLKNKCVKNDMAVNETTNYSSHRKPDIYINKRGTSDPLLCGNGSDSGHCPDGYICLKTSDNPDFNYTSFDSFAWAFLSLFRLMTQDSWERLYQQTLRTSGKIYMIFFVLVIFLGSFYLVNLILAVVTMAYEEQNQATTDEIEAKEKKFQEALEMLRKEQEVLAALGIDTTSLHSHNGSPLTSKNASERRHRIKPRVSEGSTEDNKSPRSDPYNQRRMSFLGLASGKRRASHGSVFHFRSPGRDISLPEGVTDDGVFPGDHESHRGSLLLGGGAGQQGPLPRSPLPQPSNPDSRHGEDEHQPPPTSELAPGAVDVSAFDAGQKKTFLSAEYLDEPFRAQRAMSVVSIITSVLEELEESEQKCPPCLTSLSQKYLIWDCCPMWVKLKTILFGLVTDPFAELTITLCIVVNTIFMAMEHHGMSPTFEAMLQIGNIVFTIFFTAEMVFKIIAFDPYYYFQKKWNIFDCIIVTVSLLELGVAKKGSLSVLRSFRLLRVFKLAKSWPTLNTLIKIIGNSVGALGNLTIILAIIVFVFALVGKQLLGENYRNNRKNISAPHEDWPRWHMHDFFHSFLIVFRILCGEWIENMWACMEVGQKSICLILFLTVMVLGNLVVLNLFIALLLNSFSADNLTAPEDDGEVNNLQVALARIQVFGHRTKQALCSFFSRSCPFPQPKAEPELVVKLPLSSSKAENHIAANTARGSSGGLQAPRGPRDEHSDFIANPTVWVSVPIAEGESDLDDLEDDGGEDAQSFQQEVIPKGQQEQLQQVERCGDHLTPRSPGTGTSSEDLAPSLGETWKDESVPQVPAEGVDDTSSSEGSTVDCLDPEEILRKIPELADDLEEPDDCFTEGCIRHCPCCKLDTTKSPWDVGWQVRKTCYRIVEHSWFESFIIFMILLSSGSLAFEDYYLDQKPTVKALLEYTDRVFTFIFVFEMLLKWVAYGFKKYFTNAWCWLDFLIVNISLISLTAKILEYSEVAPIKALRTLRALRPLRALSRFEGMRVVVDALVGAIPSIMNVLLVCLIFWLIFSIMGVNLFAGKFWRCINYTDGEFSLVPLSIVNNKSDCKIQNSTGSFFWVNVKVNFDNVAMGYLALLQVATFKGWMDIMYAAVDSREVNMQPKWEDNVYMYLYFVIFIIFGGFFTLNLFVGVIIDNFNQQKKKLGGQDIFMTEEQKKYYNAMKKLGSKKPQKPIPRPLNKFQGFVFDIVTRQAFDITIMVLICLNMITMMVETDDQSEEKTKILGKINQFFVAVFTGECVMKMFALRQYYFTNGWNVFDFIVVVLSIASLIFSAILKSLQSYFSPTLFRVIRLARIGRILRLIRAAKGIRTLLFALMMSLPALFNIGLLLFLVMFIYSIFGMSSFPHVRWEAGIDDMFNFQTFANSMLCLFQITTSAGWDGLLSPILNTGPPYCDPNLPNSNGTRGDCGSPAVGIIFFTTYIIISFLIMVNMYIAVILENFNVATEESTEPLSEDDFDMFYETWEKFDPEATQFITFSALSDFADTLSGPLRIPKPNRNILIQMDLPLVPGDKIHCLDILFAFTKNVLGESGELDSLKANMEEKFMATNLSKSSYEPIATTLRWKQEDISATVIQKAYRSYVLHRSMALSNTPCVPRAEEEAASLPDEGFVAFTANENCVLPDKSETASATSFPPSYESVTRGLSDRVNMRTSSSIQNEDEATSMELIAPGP

In general, IC50 refers to the concentration at which inhibition is half-maximal. For the compound `C[C@@H]1C(=O)NCCN1C(=O)NC(c1ccc(OC(F)(F)F)c(F)c1)c1ccc(F)c(C(F)(F)F)n1` (single isomer, unassigned) [Example 56A, (2R)-N-((R or S)-(3-fluoro-4-(trifluoro-methoxy)phenyl)(5-fluoro-6-(trifluoro-methyl)pyridin-2-yl)methyl)-2-methyl-3-oxopiperazine-1-carboxamide], the concentration for half-maximal inhibition (IC50) is 11.7 nM. Consider `C[C@@H]1C(=O)NCCN1C(=O)NC(c1cnc(C(F)(F)F)c(Cl)c1)c1csc(C(F)(F)F)n1` (single isomer, unassigned) [Example 84B, (2R)-N-((S or R)-(5-chloro-6-(trifluoromethyl)pyridin-3-yl)(2-(trifluoromethyl)thiazol-4-yl)methyl)-2-methyl-3-oxopiperazine-1-carboxamide], for which the IC50 worked out at 202 nM.

Consider `O=C1CN(C(=O)NC(c2ccc(OCC(F)(F)F)nc2)c2ccc(F)c(Cl)c2)CCN1` (single isomer, unassigned) [Example 2B, N-((S or R)-(3-chloro-4-fluorophenyl)(6-(2,2,2-trifluoroethoxy)pyridin-3-yl)methyl)-3-oxopiperazine-1-carboxamide], for which the IC50 turned out to be 123 nM. Turning to `C[C@@H]1C(=O)NCCN1C(=O)NC(c1cnc(OCC(F)(F)F)s1)c1ccc(F)c(Cl)c1F` (single isomer, unassigned) [Example 13B, (2R)-N-((S or R)-(3-chloro-2,4-difluoro-phenyl)(2-(2,2,2-trifluoroethoxy)thiazol-5-yl)methyl)-2-methyl-3-oxopiperazine-1-carboxamide], the IC50 amounted to 9.42 nM.

Regarding `C[C@@H]1C(=O)NCCN1C(=O)NC(c1ccc(Cl)cc1)c1cccc(C(F)(F)F)n1` (single isomer, unassigned) [Example 9A, (2R)-N-((R or S)-(4-chlorophenyl)(6-(trifluoromethyl)pyridin-2-yl)methyl)-2-methyl-3-oxo-piperazine-1-carboxamide], the IC50 turned out to be 61.6 nM. In the case of `C[C@@H]1C(=O)NCCN1C(=O)NC(c1cnc(C(F)(F)F)nc1)c1ccc(F)c(Cl)c1` (single isomer, unassigned) [Example 69B, (2R)-N-((S or R)-(3-chloro-4-fluorophenyl)(2-(trifluoromethyl)pyrimidin-5-yl)methyl)-2-methyl-3-oxopiperazine-1-carboxamide], the IC50 was determined as 23 nM. Next, `O=C1NCCN(C(=O)NC(c2cnc(C(F)(F)F)c(F)c2)c2ccc(F)c(Cl)c2F)C1C1CC1` (single isomer, unassigned) [Example 37A, N-(R or S)-(3-chloro-2,4-difluorophenyl)(5-fluoro-6-(trifluoro-methyl)pyridin-3-yl)methyl)-(R or S)-2-cyclopropyl-3-oxopiperazine-1-carboxamide]: 1.85 nM; `C[C@@H]1C(=O)NCCN1C(=O)NC(c1cnc(OC(F)F)s1)c1ccc(F)c(Cl)c1F` (single isomer, unassigned) [Example 14A, (2R)-N-((R or S)-(3-chloro-2,4-difluorophenyl)(2-(difluoromethoxy)thiazol-5-yl)methyl)-2-methyl-3-oxopiperazine-1-carboxamide]: 5.57 nM. On to `C[C@@H]1C(=O)NCCN1C(=O)NC(c1ccc(OC(F)(F)F)c(F)c1)c1ccc(C#N)c(C(F)(F)F)n1` (single isomer, unassigned) [Example 61A], for which the IC50 turned out to be 1.02 nM.

With `C[C@@H]1C(=O)NCCN1C(=O)NC(c1ccc(OC(F)(F)F)nc1)c1ccc(F)c(C(F)(F)F)n1` (single isomer, unassigned) [Example 51A, (2R)-N-((R or S)-(5-fluoro-6-(trifluoromethyl)pyridin-2-yl)(6-(trifluoro-methoxy)pyridin-3-yl)methyl)-2-methyl-3-oxopiperazine-1-carboxamide], the IC50 was 129 nM. In the case of `C[C@@H]1C(=O)NCCN1C(=O)NC(c1cnc(OC(F)F)s1)c1ccc(F)c(Cl)c1F` (single isomer, unassigned) [Example 14B, (2R)-N-((S or R)-(3-chloro-2,4-difluorophenyl)(2-(difluoromethoxy)thiazol-5-yl)methyl)-2-methyl-3-oxopiperazine-1-carboxamide], the IC50 is 101 nM. For `C[C@@H]1C(=O)NCCN1C(=O)NC(c1ccc(C(F)(F)F)nc1)c1ccc(F)c(OC(F)(F)F)c1` (single isomer, unassigned) [Example 19B, (2R)-N-((S or R)-(4-fluoro-3-(trifluoro-methoxy)phenyl)(6-(trifluoromethyl)pyridin-3-yl)methyl)-2-methyl-3-oxopiperazine-1-carboxamide] the value was 72.6 nM. Next, `C[C@@H]1C(=O)NCCN1C(=O)NC(c1ccc(OC(F)(F)F)c(F)c1)c1cnc(C(F)(F)F)c(Cl)c1` (single isomer, unassigned) [Example 21B, (2R)-N-((S or R)-(5-chloro-6-(trifluoro-methyl)pyridin-3-yl)(3-fluoro-4-(trifluoro-methoxy)phenyl)methyl)-2-methyl-3-oxo-piperazine-1-carboxamide]: 7.71 nM; `C[C@@H]1C(=O)NCCN1C(=O)NC(c1ccc(OCC(F)(F)F)nc1)c1ccc(F)c(Cl)c1` (single isomer, unassigned) [Example 3A, (2R)-N-((R or S)-(3-chloro-4-fluorophenyl)(6-(2,2,2-trifluoro-ethoxy)pyridin-3-yl)methyl)-2-methyl-3-oxopiperazine-1-carboxamide]: 2.22 nM.

For the compound `C[C@@H]1C(=O)NCCN1C(=O)NC(c1ccc(OC(F)(F)F)c(F)c1)c1ccc(C#N)c(C(F)(F)F)n1` (single isomer, unassigned) [Example 61B], the concentration for half-maximal inhibition (IC50) came to 3.83 nM. For `C[C@@H]1C(=O)NCCN1C(=O)NC(c1ccc(C#N)cc1)c1ccc(Cl)c(C(F)(F)F)n1` (single isomer, unassigned) [Example 76B] the value was 167 nM. Next, `C[C@@H]1C(=O)NCCN1C(=O)NC(c1ccc(F)c(C(F)(F)F)n1)c1ccc(F)c(Cl)c1F` (single isomer, unassigned) [Example 60A, (2R)-N-((R or S)-(3-chloro-2,4-difluoro-phenyl)(5-fluoro-6-(trifluoromethyl)pyridin-2-yl)methyl)-2-methyl-3-oxopiperazine-1-carboxamide]: 2.19 nM; `C[C@@H]1C(=O)NCCN1C(=O)NC(c1ccnc(OCC(F)(F)F)c1)c1ccc(F)c(Cl)c1` (single isomer, unassigned) [Example 71A, (2R)-N-((R or S)-(3-chloro-4-fluorophenyl)(2-(2,2,2-trifluoro-ethoxy)pyridin-4-yl)methyl)-2-methyl-3-oxopiperazine-1-carboxamide]: 82.6 nM; `O=C1CN(C(=O)NC(c2ccc(F)c(Cl)c2)c2cccc(C(F)(F)F)n2)[C@H](CF)CN1` (single isomer, unassigned) [Example 47B, (2S)-N-((R or S)-(3-chloro-4-fluoro-phenyl)(6-(trifluoro-methyl)pyridin-2-yl)methyl)-2-(fluoromethyl)-5-oxopiperazine-1-carboxamide]: 3760 nM. As to `C[C@@H]1C(=O)NCCN1C(=O)NC(c1ccc(Cl)cc1)c1ccc(OCC(F)(F)F)nc1` (single isomer, unassigned) [Example 5B, (2R)-N-((S or R)-(4-chlorophenyl)(6-(2,2,2-trifluoro-ethoxy)pyridin-3-yl)methyl)-2-methyl-3-oxopiperazine-1-carboxamide], the IC50 turned out to be 28.9 nM. For the compound `C[C@@H]1C(=O)NCCN1C(=O)NC(c1ccc(Cl)c(C(F)(F)F)n1)c1ccc(F)c(Cl)c1F` (single isomer, unassigned) [Example 77B, (2R)-N-((S or R)-(3-chloro-2,4-difluorophenyl)(5-chloro-6-(trifluoromethyl)pyridin-2-yl)methyl)-2-methyl-3-oxopiperazine-1-carboxamide], the IC50 is 1.06 nM.

In the case of `C[C@@H]1C(=O)NCCN1C(=O)NC(c1cnc(OCC(F)(F)F)c(F)c1)c1ccc(F)c(Cl)c1F` (single isomer, unassigned) [Example 10B, (2R)-N-((S or R)-(3-chloro-2,4-difluorophenyl)(5-fluoro-6-(2,2,2-trifluoroethoxy)pyridin-3-yl)methyl)-2-methyl-3-oxopiperazine-1-carboxamide], the IC50 is 28 nM. For `C[C@@H]1C(=O)NCCN1C(=O)NC(c1ccc(OCC(F)(F)F)cc1)c1ccc(F)c(C(F)(F)F)n1` (single isomer, unassigned) [Example 57B, (2R)-N-((S or R)-(5-fluoro-6-(trifluoro-methyl)pyridin-2-yl)(4-(2,2,2-trifluoro-ethoxy)phenyl)methyl)-2-methyl-3-oxopiperazine-1-carboxamide] the value was 125 nM.
